Assay results reported in patent US9708336B2, “Metallo-beta-lactamase inhibitors” (priority 2014, dated 2017).
Where two headings read alike, the source gives them in different places.

How the values were obtained:
NDM-1 = NDM-1 (Klebsiella pneumoniae, UniProt C7C422); experiment: biochemical; type: biochemical; conditions: read-out: NDM-1 IC50
IMP-1 = IMP-1 (Serratia marcescens, UniProt P52699); experiment: biochemical; type: biochemical; conditions: read-out: IMP-1 IC50
VIM-1 = VIM-1 (Pseudomonas aeruginosa (strain ATCC 15692 / DSM 22644 / CIP 104116 / JCM 14847 / LMG 12228 / 1C / PRS 101 / PAO1), UniProt A0A0F7KYQ8); experiment: Enzyme activity: determination of IC50, fluorescence assay with CCF2-FA substrate (VIM-1); type: biochemical
[1] = tested on: Escherichia coli expressing NDM-1 (CLB30016); experiment: Antibiotic potentiation activity: synergistic concentration (MITC95) with imipenem, OD600 growth; type: cell-based
Procedure, shortened: (§1)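 Inoculum: saline suspension of overnight colonies, 1:100 into 1.1× CAMHB. Imipenem 4 μg/ml final (alt. 1 μg/ml) + compound; 35 °C, 22–24 h; absorbance read-out.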

[2] = tested on: Klebsiella pneumoniae expressing VIM-1 (IHMA599644); experiment: as above; type: cell-based
Procedure, shortened: as §1

[3] = tested on: Serratia marcescens expressing IMP-1 (CL5741); experiment: as above; type: cell-based
Procedure, shortened: as §1

[4] = fluorescence assay with CCF2-FA substrate
[5] = VIM-1 IC50, fluorescence assay with CCF2-FA substrate
[6] = CLB30016 (NDM-1), 95% inhibition of bacterial growth
[7] = IHMA599644 (VIM-1), 95% inhibition of bacterial growth
[8] = CL5741 (IMP-1), 95% inhibition of bacterial growth
[9] = NDM-1 enzyme, CCF2-FA fluorescence assay
[10] = IMP-1 enzyme, CCF2-FA fluorescence assay
[11] = Escherichia coli expressing NDM-1 (CLB30016), 95% growth inhibition
[12] = Klebsiella pneumoniae expressing VIM-1 (IHMA599644), 95% growth inhibition
[13] = Serratia marcescens expressing IMP-1 (CL5741), 95% growth inhibition
[14] = NDM-1 enzyme, CCF2-FA substrate
[15] = IMP-1 enzyme, CCF2-FA substrate
[16] = VIM-1 IC50, VIM-1 enzyme, CCF2-FA substrate
[17] = (CLB30016, NDM-1), 95% growth inhibition
[18] = Klebsiella pneumoniae IHMA599644 (VIM-1), 95% growth inhibition
[19] = Serratia marcescens CL5741 (IMP-1), 95% growth inhibition
[20] = VIM-1 enzyme, CCF2-FA substrate, read-out: VIM-1 IC50
[21] = fluorescence assay with CCF2-FA substrate, read-out: VIM-1 IC50

Sequence of IMP-1 (P52699 whole entry, looked up): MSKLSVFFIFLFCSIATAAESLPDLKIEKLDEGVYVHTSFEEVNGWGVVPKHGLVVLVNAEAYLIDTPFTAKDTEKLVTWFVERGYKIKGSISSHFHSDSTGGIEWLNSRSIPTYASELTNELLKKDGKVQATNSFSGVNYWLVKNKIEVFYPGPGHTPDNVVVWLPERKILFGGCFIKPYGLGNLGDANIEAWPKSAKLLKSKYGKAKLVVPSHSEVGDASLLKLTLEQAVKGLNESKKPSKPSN
Sequence of NDM-1 (C7C422 whole entry, looked up, species assumed): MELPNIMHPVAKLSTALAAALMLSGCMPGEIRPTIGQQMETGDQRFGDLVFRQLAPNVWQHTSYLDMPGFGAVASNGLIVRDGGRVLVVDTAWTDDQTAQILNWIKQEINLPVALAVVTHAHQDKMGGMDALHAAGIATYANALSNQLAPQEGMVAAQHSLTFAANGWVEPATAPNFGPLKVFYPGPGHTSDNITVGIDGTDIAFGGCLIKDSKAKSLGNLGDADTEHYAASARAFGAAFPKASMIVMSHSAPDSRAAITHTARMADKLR

SMILES: NCC1CCN(c2ccc(C(F)(F)F)c(S(N)(=O)=O)c2-c2nnn[nH]2)CC1 [Example 821, 3-[4-(aminomethyl)-1-piperidyl]-2-(1H-tetrazol-5-yl)-6-(trifluoromethyl)benzenesulfonamide]
- IC50 (NDM-1; [4]): 18.1 nM
- IC50 (IMP-1; [4]): 55.1 nM
- IC50 (VIM-1; [5]): 0.496 nM
- Escherichia coli MITC95 [1, 6]: 12.5 µM
- Klebsiella pneumoniae MITC95 [2, 7]: 12.5 µM
- Serratia marcescens MITC95 [3, 8]: 6.25 µM

SMILES: N=C(N)N1CCC(N)(c2ccc(-c3ccc(C(F)(F)F)c(S(N)(=O)=O)c3-c3nn[nH]n3)cc2)CC1 [Example 438, 4-amino-4-(3′-sulfamoyl-2′-(2H-tetrazol-5-yl)-4′-(trifluoromethyl)-[1,1′-biphenyl]-4-yl)piperidine-1-carboximidamide]
- IC50 (NDM-1; [9]): 3.67 nM
- IC50 (IMP-1; [10]): 4.05 nM
- IC50 (VIM-1; VIM-1 IC50, VIM-1 enzyme, CCF2-FA fluorescence assay): 10.8 nM
- Escherichia coli MITC95 [1, 11]: 0.125 µM
- Klebsiella pneumoniae MITC95 [2, 12]: 2.563 µM
- Serratia marcescens MITC95 [3, 13]: 0.25 µM

SMILES: Nc1cc(-c2ccc(C(F)(F)F)c(S(N)(=O)=O)c2-c2nnn[nH]2)cc(N)n1 [Example 714, 3-(2,6-diaminopyridin-4-yl)-2-(1H-tetrazol-5-yl)-6-(trifluoromethyl)benzenesulfon-amide]
- IC50 (NDM-1; [14]): 5.05 nM
- IC50 (IMP-1; [15]): 31.7 nM
- IC50 (VIM-1; [16]): 0.799 nM
- Escherichia coli MITC95 [1, 17]: 1.563 µM
- Klebsiella pneumoniae MITC95 [2, 18]: 3.125 µM
- Serratia marcescens MITC95 [3, 19]: 12.5 µM

SMILES: NS(=O)(=O)c1c(C(F)(F)F)ccc(-c2ccc(C(O)C3CCNCC3)cc2)c1-c1nnn[nH]1 (stereo not drawn) [Example 738, 4′-[hydroxy(piperidin-4-yl)methyl]-2-(1H-tetrazol-5-yl)-4-(trifluoromethyl)biphenyl-3-sulfonamide]
- IC50 (NDM-1; [14]): 1.28 nM
- IC50 (IMP-1; [15]): 2.28 nM
- IC50 (VIM-1; [16]): 3.41 nM
- Escherichia coli MITC95 [1, 17]: 3.125 µM
- Klebsiella pneumoniae MITC95 [2, 18]: 50 µM
- Serratia marcescens MITC95 [3, 19]: 6.25 µM

SMILES: NCCS(=O)(=O)c1ccc(-c2ccc(C(F)(F)F)c(S(N)(=O)=O)c2-c2nnn[nH]2)cc1 [Example 736, 4′-[(2-aminoethyl)sulfonyl]-2-(1H-tetrazol-5-yl)-4-(trifluoromethyl)biphenyl-3-sulfonamide]
- IC50 (NDM-1; [14]): 3.23 nM
- IC50 (IMP-1; [15]): 3.23 nM
- IC50 (VIM-1; [20]): 1.59 nM
- Escherichia coli MITC95 [1, 17]: 6.25 µM
- Klebsiella pneumoniae MITC95 [2, 18]: 6.25 µM
- Serratia marcescens MITC95 [3, 19]: 6.25 µM

SMILES: NC1CN(C2CCN(c3ccc(C(F)(F)F)c(S(N)(=O)=O)c3-c3nnn[nH]3)CC2)C1 [Example 758, 3-[4-(3-aminoazetidin-1-yl)piperidin-1-yl]-2-(1H-tetrazol-5-yl)-6-(trifluoromethyl) benzenesulfonamide]
- IC50 (NDM-1; [4]): 29.6 nM
- IC50 (IMP-1; [4]): 45.8 nM
- IC50 (VIM-1; [5]): 2.44 nM
- Escherichia coli MITC95 [1, 6]: 6.25 µM
- Klebsiella pneumoniae MITC95 [2, 7]: 6.25 µM
- Serratia marcescens MITC95 [3, 8]: 6.25 µM

SMILES: Nc1nc2cc(F)cc(-c3ccc(C(F)(F)F)c(S(N)(=O)=O)c3-c3nnn[nH]3)c2[nH]1 [Example 566, 3-(2-amino-5-fluoro-1H-benzo[d]imidazol-7-yl)-2-(1H-tetrazol-5-yl)-6-(trifluoromethyl)benzenesulfonamide]
- IC50 (NDM-1; [14]): 0.233 nM
- IC50 (IMP-1; [15]): 2.68 nM
- IC50 (VIM-1; [20]): 0.508 nM
- Escherichia coli MITC95 [1, 17]: 0.7813 µM
- Klebsiella pneumoniae MITC95 [2, 18]: 3.125 µM
- Serratia marcescens MITC95 [3, 19]: 3.125 µM

SMILES: NS(=O)(=O)c1c(C(F)(F)F)ccc(N2C[C@@H](O)[C@@H](O)C2)c1-c1nnn[nH]1 [Example 757, 3-[(3R,4S)-3,4-dihydroxypyrrolidin-1-yl]-2-(1H-tetrazol-5-yl)-6-(trifluoromethyl) benzenesulfonamide]
- IC50 (NDM-1; [4]): 82.8 nM
- IC50 (IMP-1; [4]): 111 nM
- IC50 (VIM-1; [5]): 353 nM
- Escherichia coli MITC95 [1, 6]: 12.5 µM
- Klebsiella pneumoniae MITC95 [2, 7]: >200 µM
- Serratia marcescens MITC95 [3, 8]: 25 µM

SMILES: CNC1CC(N2CCC(c3ccc(-c4ccc(C(F)(F)F)c(S(N)(=O)=O)c4-c4nnn[nH]4)cc3)CC2)C1 (stereo not drawn) [Example 799, 4′-{1-[3-(methylamino)cyclobutyl]piperidin-4-yl}-2-(1H-tetrazol-5-yl)-4-(trifluoromethyl)biphenyl-3-sulfonamide]
- IC50 (NDM-1; [4]): 3.89 nM
- IC50 (IMP-1; [4]): 1.05 nM
- IC50 (VIM-1; [21]): 15 nM
- Escherichia coli MITC95 [1, 6]: 3.125 µM
- Klebsiella pneumoniae MITC95 [2, 7]: >200 µM
- Serratia marcescens MITC95 [3, 8]: 3.125 µM

SMILES: NS(=O)(=O)c1cccc(-c2snc3ncccc23)c1-c1nnn[nH]1 [Example 413, 3-isothiazolo[3,4-b]pyridin-3-yl-2-(1H-tetrazol-5-yl)benzenesulfonamide]
- IC50 (NDM-1; [9]): 2.12 nM
- IC50 (IMP-1; [10]): 340 nM
- IC50 (VIM-1; VIM-1 enzyme, CCF2-FA fluorescence assay, read-out: VIM-1 IC50): 2.08 nM
- Escherichia coli MITC95 [1, 11]: 0.5859 µM
- Klebsiella pneumoniae MITC95 [2, 12]: 4.688 µM
- Serratia marcescens MITC95 [3, 13]: 9.375 µM

SMILES: NS(=O)(=O)c1cccc(-c2ccc(C3CCN(C[C@H]4CNCCO4)CC3)cc2)c1-c1nnn[nH]1 [Example 619]
- IC50 (NDM-1; [14]): 8.23 nM
- IC50 (IMP-1; [15]): 10.8 nM
- IC50 (VIM-1; [16]): 388 nM
- Escherichia coli MITC95 [1, 17]: 0.7813 µM
- Klebsiella pneumoniae MITC95 [2, 18]: 150 µM
- Serratia marcescens MITC95 [3, 19]: 0.9766 µM

SMILES: NS(=O)(=O)c1c(C(F)(F)F)ccc([C@H]2CC[C@H](C3CCNCC3)CC2)c1-c1nnn[nH]1 [Example 832, 3-((1r,4r)-4-(piperidin-4-yl)cyclohexyl)-2-(1H-tetrazol-5-yl)-6-(trifluoromethyl)benzenesulfonamide]
- IC50 (NDM-1; [4]): 0.501 nM
- IC50 (IMP-1; [4]): 1.46 nM
- IC50 (VIM-1; [21]): 0.212 nM
- Escherichia coli MITC95 [1, 6]: 1.563 µM
- Klebsiella pneumoniae MITC95 [2, 7]: 4.688 µM
- Serratia marcescens MITC95 [3, 8]: 3.125 µM

SMILES: NS(=O)(=O)c1c(C(F)(F)F)ccc(N2CCCC(CCO)C2)c1-c1nnn[nH]1 (stereo not drawn) [Example 660, 3-[3-(2-hydroxyethyl)piperidin-1-yl]-2-(1H-tetrazol-5-yl)-6-(trifluoromethyl)benzenesulfonamide]
- IC50 (NDM-1; [14]): 4.7 nM
- IC50 (IMP-1; [15]): 10.4 nM
- IC50 (VIM-1; [20]): 1.31 nM
- Escherichia coli MITC95 [1, 17]: 2.344 µM
- Klebsiella pneumoniae MITC95 [2, 18]: 6.25 µM
- Serratia marcescens MITC95 [3, 19]: 0.3906 µM

SMILES: Cc1ccc(-c2ccc(C(F)(F)F)c(S(N)(=O)=O)c2-c2nnn[nH]2)c2[nH]c(N)nc12 [Example 568, 3-(2-amino-4-methyl-1H-benzo[d]imidazol-7-yl)-2-(1H-tetrazol-5-yl)-6-(trifluoromethyl)benzenesulfonamide]
- IC50 (NDM-1; [14]): 0.0983 nM
- IC50 (IMP-1; [15]): 1.17 nM
- IC50 (VIM-1; [20]): 0.161 nM
- Escherichia coli MITC95 [1, 17]: 0.3906 µM
- Klebsiella pneumoniae MITC95 [2, 18]: 1.563 µM
- Serratia marcescens MITC95 [3, 19]: 1.563 µM

SMILES: CN(CCCCN)c1nc2c(-c3cccc(S(N)(=O)=O)c3-c3nnn[nH]3)cccc2s1 [Example 645, 3-[2-[4-aminobutyl(methyl)amino]-1,3-benzothiazol-4-yl]-2-(1H-tetrazol-5-yl)benzenesulfonamide]
- IC50 (NDM-1; [14]): 1.16 nM
- IC50 (IMP-1; [15]): 88.8 nM
- IC50 (VIM-1; [16]): 5.29 nM
- Escherichia coli MITC95 [1, 17]: 1.563 µM
- Klebsiella pneumoniae MITC95 [2, 18]: 50 µM
- Serratia marcescens MITC95 [3, 19]: 100 µM

SMILES: NC1(c2ccc(-c3ccc(C(F)(F)F)c(S(N)(=O)=O)c3-c3nnn[nH]3)cc2)CC(O)C1 (stereo not drawn) [Example 728, 4′-(1-amino-3-hydroxycyclobutyl)-2-(1H-tetrazol-5-yl)-4-(trifluoromethyl)biphenyl-3-sulfonamide]
- IC50 (NDM-1; [14]): 2.58 nM
- IC50 (IMP-1; [15]): 4.16 nM
- IC50 (VIM-1; [16]): 4 nM
- Escherichia coli MITC95 [1, 17]: 3.125 µM
- Klebsiella pneumoniae MITC95 [2, 18]: 25 µM
- Serratia marcescens MITC95 [3, 19]: 6.25 µM
